Laboratory results reported in patent US10344019B2 (priority 2010, dated 2019).
Where two headings read alike, the source gives them in different places.

Assays:
Assay in all cases: microbe, parasite or virus in culture
Format in all cases: cell-based
[1] = tested on: HCV 1a RLuc cells (dicistronic genotype 1a H77 replicon, RLuc reporter); conditions: Hepatitis C virus, read-out: 1a
Description: (§1) Evaluation of cell-based anti-HCV activity: Antiviral potency (EC50) was determined using a Renilla luciferase (RLuc)-based HCV replicon reporter assay. To perform the assay for genotype 1 and 2a JFH-1, HCV 1b RLuc cells (harboring a dicistronic genotype 1b Con1 replicon that encodes a RLuc reporter), or HCV 1a RLuc cells (harboring a dicistronic genotype 1a H77 replicon that encodes a RLuc reporter), or HCV 2a JFH-1 Rluc cells (harboring a dicistronic genotype 2a JFH-1 replicon that encodes a RLuc reporter) were dispensed into 384-well plates. To perform the assay for genotype 2a (with M31 present) or 2b, HCV 2a Rluc or 2b Rluc cells (both with M31 present) harboring a dicistronic NS5A chimeric genotype 2a JFH-1 replicon that encodes a RLuc reporter and either genotype 2a J6 strain NS5A gene or genotype 2b MD2b-1 NS5A gene (based on Los Alamos HCV database isolates, both with M31 present) respectively, were dispensed into 384-well plates. To perform the assay for genotype 3 and 4, HCV 3a RLuc or 4a Rluc cells harboring a dicistronic NS5A chimeric genotype 1b Con1 replicon that encodes a RLuc reporter and either a consensus genotype 3a NS5A gene or genotype 4a NS5A gene (based on Los Alamos HCV database isolates) respectively, were dispensed into 384-well plates. Compounds were re-suspended in DMSO at a concentration of 10 mM and serially diluted in DMSO either manually or using an automated pipeting instrument. Serially diluted compounds were mixed with cell culture media and added to the seeded cells. […] 72 hours later, cells were lysed and Renilla luciferase activity quantified as recommended by the manufacturer (Promega-Madison, Wis.). Non-linear regression was performed to calculate EC50 values.

[2] = tested on: HCV 4a Rluc cells (NS5A chimeric genotype 1b Con1 replicon with genotype 4a NS5A gene); conditions: Hepatitis C virus, read-out: 4a
Description: as §1

[3] = tested on: HCV 2a JFH-1 Rluc cells (dicistronic genotype 2a JFH-1 replicon, RLuc reporter); conditions: Hepatitis C virus, genotype 2a JFH-1 replicon, read-out: 2a JFH
Description: as §1

[4] = tested on: HCV 3a RLuc cells (NS5A chimeric genotype 1b Con1 replicon with consensus genotype 3a NS5A gene); conditions: Hepatitis C virus
Description: as §1

[5] = tested on: HCV 1b RLuc cells (dicistronic genotype 1b Con1 replicon, RLuc reporter); conditions: Hepatitis C virus, read-out: 1b (nM)
Description: as §1

[6] = 72 h, Table 2, genotype 1a H77 replicon, 72 hours
[7] = read-out: 3a, Table 2, genotype 3a NS5A chimeric replicon
[8] = genotype 1a H77 replicon, RLuc reporter
[9] = read-out: 3a, genotype 3a NS5A chimeric 1b Con1 replicon
[10] = read-out: 3a, genotype 3a replicon

For COC(=O)N[C@H](C(=O)N1CC2(C[C@@H]1c1nc(-c3ccc4c(c3)C(F)(F)c3cc(-c5ccc6nc([C@@H]7CCCN7C(=O)[C@H](NC(=O)OC)c7ccccc7)[nH]c6c5)ccc3-4)c[nH]1)OCCO2)C(C)C [Example 46], the EC50 [1, 6] was 0.001 to 0.999 nM, the EC50 [2] was 0.001 to 0.99 nM and the EC50 ([3]; 72 h, Table 2, 72 hours) was 0.001 to 0.999 nM. For the same molecule, the EC50 [4, 7] was 1 to 4.99 nM and the EC50 ([5]; 72 h) was 0.007 nM.

Work on COC(=O)NC(C(=O)N1CCC[C@H]1c1ncc(-c2ccc(-c3ccc4cc(-c5cnc([C@@H]6CCCN6C(=O)[C@@H](NC(=O)OC)C(C)C)[nH]5)ccc4c3)cc2)[nH]1)c1cnccn1 (stereo partly shown) [Example 230] yielded an EC50 [1, 8] of 0.001 to 0.999 nM, an EC50 [2] of 1 to 4.99 nM and an EC50 ([3]; RLuc reporter) of 1 to 44 nM. It also gave an EC50 [4, 9] of 1 to 4.99 nM and an EC50 [5] of 0.012 nM.

Work on COC(=O)NC(C(=O)N1[C@@H]2CC[C@@H](C2)[C@H]1c1nc2ccc(-c3ccc4c(c3)C(F)(F)c3cc(-c5c[nH]c([C@H]6CCCN6C(=O)[C@H](NC(=O)OC)c6ccccc6)n5)ccc3-4)cc2[nH]1)[C@@H](C)OC (stereo partly shown) [Example 75] yielded an EC50 [1, 6] of 0.001 to 0.999 nM, an EC50 [2] of 0.001 to 0.99 nM and an EC50 ([3]; 72 h, Table 2, 72 hours) of 0.001 to 0.999 nM. It also gave an EC50 [4, 7] of 0.001 to 0.99 nM and an EC50 ([5]; 72 h) of 0.005 nM.

COC(=O)NC(C(=O)N1C[C@H](C)C[C@H]1c1ncc(-c2ccc(-c3ccc4cc(-c5cnc([C@@H]6CCCN6C(=O)[C@@H](NC(=O)OC)C(C)C)[nH]5)ccc4c3)cc2)[nH]1)c1cccnc1 (stereo partly shown) [Example 215] showed an EC50 [1, 8] of 0.001 to 0.999 nM, an EC50 [2] of 0.001 to 0.99 nM and an EC50 ([3]; RLuc reporter) of 0.001 to 0.999 nM. The EC50 [4, 9] was 0.001 to 0.99 nM and the EC50 [5] was 0.023 nM.

In the case of COC(=O)N[C@H](C(=O)N1CC2(CC2)C[C@H]1c1ncc(-c2ccc3c(c2)C(F)(F)c2cc(-c4ccc5nc([C@@H]6[C@H]7CC[C@H](C7)N6C(=O)[C@@H](c6ccccc6)N6CCOCC6)[nH]c5c4)ccc2-3)[nH]1)C(C)C [Example 96], the EC50 [1, 6] is reported as 0.001 to 0.999 nM, the EC50 [2] is reported as 0.001 to 0.99 nM and the EC50 ([3]; 72 h, Table 2, 72 hours) is reported as 1 to 44 nM. It also gave an EC50 [4, 7] of 1 to 4.99 nM and an EC50 ([5]; 72 h) of 0.006 nM.

For COC(=O)N[C@H](C(=O)N1CCC[C@H]1c1nc2ccc(-c3ccc4c(c3)sc3cc(-c5cnc([C@@H]6CCCN6C(=O)[C@H](NC(=O)OC)c6ccccc6)[nH]5)ccc34)cc2[nH]1)[C@@H](C)OC [Example 251], the EC50 [1, 8] was 0.001 to 0.999 nM, the EC50 [2] was 0.001 to 0.99 nM and the EC50 ([3]; RLuc reporter) was 0.001 to 0.999 nM. The EC50 [4, 9] was 0.001 to 0.99 nM and the EC50 [5] was 0.01 nM.

For COC(=O)N[C@H](C(=O)N1CCC[C@H]1c1nc2ccc3cc(-c4ccc5c(c4)CCc4nc(C6CC7(CN6C(=O)[C@H](NC(=O)OC)c6ccccc6)OCCO7)[nH]c4-5)ccc3c2[nH]1)C(C)C (stereo partly shown) [Example 369], the EC50 ([1]; genotype 1a replicon) was 0.001 to 0.999 nM, the EC50 [2] was 0.001 to 0.99 nM and the EC50 [3] was 0.001 to 0.999 nM. It also gave an EC50 [4, 10] of 0.001 to 0.99 nM and an EC50 [5] of 0.047 nM.

COC(=O)N[C@H](C(=O)N1CCC[C@H]1c1ncc(-c2ccc3c(c2)C(=C(C)C)c2cc(-c4cnc([C@@H]5CCCN5C(=O)[C@@H](NC(=O)OC)C(C)C)[nH]4)ccc2-3)[nH]1)C(C)C [Example 249] gave an EC50 [1, 8] of 1 to 44 nM, an EC50 [2] of 0.001 to 0.99 nM and an EC50 ([3]; RLuc reporter) of 1 to 44 nM. For the same molecule, the EC50 [4, 9] was greater than 5 nM and the EC50 [5] was 0.014 nM.

COC(=O)N[C@H](C(=O)N1[C@@H]2CC[C@@H](C2)[C@H]1c1nc2ccc3cc(C#Cc4ccc(-c5cnc([C@@H]6CCCN6C(=O)[C@H](NC(=O)OC)c6ccccc6)[nH]5)cc4)ccc3c2[nH]1)C1CCOCC1 [Example 283] was tested, and the EC50 [1, 8] was 0.001 to 0.999 nM, the EC50 [2] was 0.001 to 0.99 nM and the EC50 ([3]; RLuc reporter) was 0.001 to 0.999 nM. The EC50 [4, 9] was 0.001 to 0.99 nM and the EC50 [5] was 0.007 nM.

With COC(=O)N[C@H](C(=O)N1CC(F)(F)C[C@H]1c1ncc(-c2ccc(-c3ccc4cc(-c5cnc([C@@H]6CCCN6C(=O)[C@H](NC(=O)OC)c6ccccc6)[nH]5)ccc4c3)cc2)[nH]1)C1CCOCC1 [Example 224] the EC50 [1, 8] was 0.001 to 0.999 nM, the EC50 [2] was 0.001 to 0.99 nM and the EC50 ([3]; RLuc reporter) was 0.001 to 0.999 nM. The EC50 [4, 9] was 0.001 to 0.99 nM and the EC50 [5] was 0.008 nM.

With COC(=O)N[C@H](C(=O)N1[C@@H]2C[C@@H]2C[C@H]1c1nc2ccc3cc(-c4ccc5c(ccc6nc([C@@H]7[C@H]8CC[C@H](C8)N7C(=O)[C@H](NC(=O)OC)c7ccccc7)[nH]c65)c4)ccc3c2[nH]1)C(C)C [Example 343] the EC50 ([1]; genotype 1a replicon) was 0.001 to 0.999 nM, the EC50 [2] was 0.001 to 0.99 nM and the EC50 [3] was 0.001 to 0.999 nM. It also gave an EC50 [4, 10] of 0.001 to 0.99 nM and an EC50 [5] of 0.012 nM.
